Measurements as given in patent US7741020B2, “Methods for detecting Lp-PLA2 activity and inhibition of Lp-PLA2 activity” (Glaxo Group Limited, priority 2004, dated 2010).
Several values for one entry are separate records, joined by “and”; a condition that tells them apart may be missing. Identical values can stand only once.

Key:
Lp-PLA2 [1] = biological target: T1, Lp-PLA2 (Homo sapiens, UniProt Q13093); test: High throughput radiometric assay for Lp-PLA2 activity (3H-PAF); assay type: biochemical; conditions: plasma of individual human subjects
T1 sequence (Q13093 22-441): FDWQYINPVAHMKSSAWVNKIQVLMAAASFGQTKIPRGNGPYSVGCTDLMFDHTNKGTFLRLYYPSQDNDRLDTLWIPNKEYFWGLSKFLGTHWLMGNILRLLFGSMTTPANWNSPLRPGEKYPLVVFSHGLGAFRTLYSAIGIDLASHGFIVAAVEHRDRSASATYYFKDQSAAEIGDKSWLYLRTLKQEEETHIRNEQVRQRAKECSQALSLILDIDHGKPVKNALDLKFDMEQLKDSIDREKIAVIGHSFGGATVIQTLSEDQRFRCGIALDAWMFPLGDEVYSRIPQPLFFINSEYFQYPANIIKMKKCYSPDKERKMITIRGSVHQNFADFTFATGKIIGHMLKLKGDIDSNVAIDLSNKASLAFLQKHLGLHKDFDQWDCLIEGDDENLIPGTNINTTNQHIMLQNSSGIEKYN
Procedure: (cat #6005162) Reagents • HEPES (4-(2-hydroxyethyl)-1-piperazineethane sulfonic acid) Sigma Chemical Co., St. Louis Mo. […] (Cat # E7889; 0.5 M) • ^3H-Platelet Activating Factor, 1-O-Hexadecyl-[acetyl-^3H(N)], (^3H-PAF)-NEN Life Science Products, Roxbury, Mass. (Cat # NET-910, supplied as an ethanol solution, typically 0.1 mCi/mL; 250 uCi) • C16-PAF, (1-hexadecyl-2-acetyl-sn-glycero-3-phosphocholine): Avanti Polar Lipids, Alabaster, Ala. […] (Cat # T9159) Assay Buffer • 100 mM Hepes, pH 7.4 • 150 mM NaCl • 5 mM EDTA • Store it at room temperature Procedures • 1. Prepare a ^3H-PAF working solution (for 100 reactions): • a) Aliquot 480 μl ^3H-PAF (10 μM=0.1 mCi/ml at 10.0 Ci/mmol) and 125.3 μl of [C16]PAF (5.0 mg/ml; MW: 524) to a tube; • b) Mix and air dry in the hood; • c) Resuspend the dried pellets in 12.0 ml of assay buffer giving working solutions of 100 μM PAF (i.e. ^3H-PAF at 0.4 μM and cold [C16]PAF at 99.6 μM); • 2. Aliquot 5 μL of assay buffer (for Total counts and Blanks; n=8) or plasma samples in duplicates into a 96-well plate; • 3. Equilibrate the plate to 21° C.; • 4. Add 100 μL of the ^3H-PAF solution to each well, mix and incubate the plate at 21° C. for 5 minutes; • 5. […]; • 6. Add 25 μL of ice-cold TCA solution (56%) to each well, mix and incubate the plate in a refrigerator for 15 minutes; • 7. Centrifuge the plate at 6,000 g for 15 minutes at 4° C.; • 8. […] Add 10 μL of ^3H-PAF working solution to 6 Total Counts wells; • 10. […] Cover the plate with a plate tape and vortex mix at max speed for 10 minutes; • 12. […] Count with a TopCount scintillation counter for 2 minutes each; and • 14.

Lp-PLA2 [2] = biological target: T1, Lp-PLA2; test: Modified drug-sensitive colorimetric assay, plasma; assay type: biochemical; conditions: plasma of individual human subjects
Description: Assay Procedure • 1. […] Use duplicates for each sample. • 4.
Pre-dose plasma samples for each subject on day 0 of the study were also available.

COCCN1CCC(N(Cc2ccc(-c3ccc(C(F)(F)F)cc3)cc2)C(=O)Cn2c(SCc3cccc(F)c3F)cc(=O)c3ccccc32)CC1 [Formula I]
% Inhibition Radiometric (Lp-PLA2 [1]; 50 mg, 5 hr after dosing): 86.07%
% Inhibition Radiometric (Lp-PLA2 [1]; 120 mg, 0.5 hr after dosing): 64.75% and 81.63% and 44.97% and 33.96%
Lp-PLA2 Activity Radiometric (Lp-PLA2 [1]; 120 mg, 0.5 hr after dosing): 35.83 nmol/min/mL and 25.97 nmol/min/mL and 16.07 nmol/min/mL and 39.68 nmol/min/mL and 58.09 nmol/min/mL
% Inhibition Radiometric (Lp-PLA2 [1]; 120 mg, 1 hr after dosing): 88.66%
Lp-PLA2 Activity Radiometric (Lp-PLA2 [1]; 120 mg, 1 hr after dosing): 10.00 nmol/min/mL
Lp-PLA2 Activity Radiometric (Lp-PLA2 [1]; 120 mg, 2 hr after dosing): 10.00 nmol/min/mL
Lp-PLA2 Activity Radiometric (Lp-PLA2 [1]; 120 mg, 3 hr after dosing): 14.09 nmol/min/mL and 12.80 nmol/min/mL and 10.00 nmol/min/mL (2×) and 21.08 nmol/min/mL
% Inhibition Radiometric (Lp-PLA2 [1]; 120 mg, 4 hr after dosing): 90.91% and 72.94%
Lp-PLA2 Activity Radiometric (Lp-PLA2 [1]; 120 mg, 4 hr after dosing): 14.00 nmol/min/mL and 10.00 nmol/min/mL (2×)
% Inhibition Radiometric (Lp-PLA2 [1]; 120 mg, 5 hr after dosing): 91.73%
Lp-PLA2 Activity Radiometric (Lp-PLA2 [1]; 120 mg, 5 hr after dosing): 14.05 nmol/min/mL and 11.69 nmol/min/mL and 10.00 nmol/min/mL (2×) and 20.24 nmol/min/mL
Lp-PLA2 Activity Radiometric (Lp-PLA2 [1]; 120 mg, 6 hr after dosing): 10.00 nmol/min/mL
Lp-PLA2 Activity Radiometric (Lp-PLA2 [1]; 120 mg, 9 hr after dosing): 21.11 nmol/min/mL and 18.51 nmol/min/mL and 14.41 nmol/min/mL and 32.48 nmol/min/mL and 11.21 nmol/min/mL
Lp-PLA2 Activity Radiometric (Lp-PLA2 [1]; 120 mg, 12 hr after dosing): 24.22 nmol/min/mL and 21.27 nmol/min/mL and 16.97 nmol/min/mL and 34.26 nmol/min/mL and 15.69 nmol/min/mL
% Inhibition Drug-Sensitive Colorimetric (Lp-PLA2 [2]; 50 mg, 0.5 hr after dosing): 16.91% and 18.69% and 26.95%
Lp-PLA2 Activity Drug-Sensitive Colorimetric (Lp-PLA2 [2]; 50 mg, 0.5 hr after dosing): 89.99 nmol/min/mL and 69.79 nmol/min/mL and 81.70 nmol/min/mL and 32.96 nmol/min/mL and 141.14 nmol/min/mL
Lp-PLA2 Activity Drug-Sensitive Colorimetric (Lp-PLA2 [2]; 50 mg, 1 hr after dosing): 17.15 nmol/min/mL and 39.10 nmol/min/mL and 24.96 nmol/min/mL and 22.46 nmol/min/mL and 37.07 nmol/min/mL
% Inhibition Drug-Sensitive Colorimetric (Lp-PLA2 [2]; 50 mg, 4 hr after dosing): 85.71%
Lp-PLA2 Activity Drug-Sensitive Colorimetric (Lp-PLA2 [2]; 50 mg, 5 hr after dosing): 20.74 nmol/min/mL and 31.77 nmol/min/mL and 16.58 nmol/min/mL and 15.83 nmol/min/mL and 18.35 nmol/min/mL
Lp-PLA2 Activity Drug-Sensitive Colorimetric (Lp-PLA2 [2]; 50 mg, 6 hr after dosing): 23.71 nmol/min/mL and 66.08 nmol/min/mL and 21.01 nmol/min/mL and 25.84 nmol/min/mL and 25.12 nmol/min/mL
% Inhibition Drug-Sensitive Colorimetric (Lp-PLA2 [2]; 50 mg, 12 hr after dosing): 60.73% and 36.04% and 55.61%
Lp-PLA2 Activity Drug-Sensitive Colorimetric (Lp-PLA2 [2]; 50 mg, 12 hr after dosing): 34.83 nmol/min/mL and 76.84 nmol/min/mL and 111.00 nmol/min/mL and 53.72 nmol/min/mL and 44.60 nmol/min/mL
% Inhibition Drug-Sensitive Colorimetric (Lp-PLA2 [2]; 120 mg, 0.5 hr after dosing): 88.89% and 85.22% and 45.29% and 41.39%
Lp-PLA2 Activity Drug-Sensitive Colorimetric (Lp-PLA2 [2]; 120 mg, 0.5 hr after dosing): 31.08 nmol/min/mL and 20.14 nmol/min/mL and 19.87 nmol/min/mL and 63.95 nmol/min/mL and 64.40 nmol/min/mL
% Inhibition Drug-Sensitive Colorimetric (Lp-PLA2 [2]; 120 mg, 1 hr after dosing): 88.85%
Lp-PLA2 Activity Drug-Sensitive Colorimetric (Lp-PLA2 [2]; 120 mg, 1 hr after dosing): 19.69 nmol/min/mL and 23.29 nmol/min/mL and 14.99 nmol/min/mL and 30.22 nmol/min/mL and 18.74 nmol/min/mL
Lp-PLA2 Activity Drug-Sensitive Colorimetric (Lp-PLA2 [2]; 120 mg, 2 hr after dosing): 19.69 nmol/min/mL and 19.54 nmol/min/mL and 12.22 nmol/min/mL and 29.51 nmol/min/mL and 10.11 nmol/min/mL
Lp-PLA2 Activity Drug-Sensitive Colorimetric (Lp-PLA2 [2]; 120 mg, 3 hr after dosing): 13.17 nmol/min/mL and 20.61 nmol/min/mL and 15.08 nmol/min/mL and 30.49 nmol/min/mL and 11.51 nmol/min/mL
Lp-PLA2 Activity Drug-Sensitive Colorimetric (Lp-PLA2 [2]; 120 mg, 4 hr after dosing): 7.30 nmol/min/mL and 21.27 nmol/min/mL and 16.18 nmol/min/mL and 29.42 nmol/min/mL and 11.21 nmol/min/mL
Lp-PLA2 Activity Drug-Sensitive Colorimetric (Lp-PLA2 [2]; 120 mg, 5 hr after dosing): 22.94 nmol/min/mL and 21.36 nmol/min/mL and 18.14 nmol/min/mL and 35.46 nmol/min/mL and 12.22 nmol/min/mL
Lp-PLA2 Activity Drug-Sensitive Colorimetric (Lp-PLA2 [2]; 120 mg, 6 hr after dosing): 20.65 nmol/min/mL and 21.39 nmol/min/mL and 18.74 nmol/min/mL and 39.29 nmol/min/mL and 17.01 nmol/min/mL
Lp-PLA2 Activity Drug-Sensitive Colorimetric (Lp-PLA2 [2]; 120 mg, 9 hr after dosing): 27.16 nmol/min/mL and 27.87 nmol/min/mL and 26.18 nmol/min/mL and 50.81 nmol/min/mL and 21.03 nmol/min/mL
